Assay: Inhibition of PHA-stimulated IL2 secretion in human Jurkat T cells preincubated for 10 mins followed by PHA addition and measured after 20 to 24 hrs by ELISA

| SMILES | IC50 [µM] |
| --- | --- |
| Cc1ccc(C2=NOC(C)(C)C2=O)cc1-c1ccc(NC(=O)c2c(F)cccc2F)cc1 [US10292981, Example 3] | 0.069 |
| Cc1ccc(C2=NOC(C)(C)C2=O)cc1-c1ccc(NC(=O)c2c(F)cccc2F)nc1 [US10292981, Example 4] | 0.178 |
| Cc1ccc(-c2nn(C)c(=O)o2)cc1-c1ccc(NC(=O)c2c(F)cccc2F)cc1 [US10292981, Example 33] | 0.034 |
| CCn1nc(-c2ccc(C)c(-c3ccc(NC(=O)c4c(F)cccc4F)cc3)c2)oc1=O [US10292981, Example 34] | 0.078 |
| Cc1ccc(C2=NOC(C)(C)C2)cc1-c1cnc(NC(=O)c2c(F)cccc2F)cn1 [US10292981, Example 53] | 0.328 |
| Cc1ccc(C2=NOC(C)(C)C2=O)cc1-c1cnc(NC(=O)c2ccccc2Cl)cn1 [US10292981, Example 78] | 0.171 |
| Cc1ccc(C2=NOC(C)(C)C2=O)cc1-c1cnc(NC(=O)c2c(F)cccc2Cl)cn1 [US10292981, Example 80] | 0.065 |
| Cc1ccc(-c2nn(C)c(=O)o2)cc1-c1cnc(NC(=O)c2c(F)cccc2F)cn1 [US10292981, Example 87] | 0.064 |
| Cc1ccc(C2=NOC(C)(C)C2=O)cc1-c1cnc(NC(=O)c2c(F)cncc2F)cn1 [US10292981, Example 114] | 0.094 |
| Cc1ccc(C2=NOC(C)(C)C2=O)cc1-c1cnc(C(=O)Nc2c(F)cccc2F)cn1 [US10292981, Example 121] | 0.15 |

From BindingDB's records for doi:10.1021/acs.jmedchem.1c01403 (Lupin, 2021)
